Reference: patent US20150105252A1, “SUBSTITUTED PYRAZOLES AS HERBICIDES” (E I DU PONT DE NEMOURS AND COMPANY, priority 2013, published 2015)

What was measured:
[1] = test system: foxtail, giant; test: Test C postemergence; format: in vivo, Setaria faberii
Procedure, shortened: (§1)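 Herbicidal effect is expressed as percent visual control (0–100) judged against untreated plants 13 to 15 days after treatment in the greenhouse. Preemergence pots contained seeds in a soil–sand blend; postemergence plants, 2–18 cm tall, grew in peat-based planting medium.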

[2] = test system: nutsedge, yellow; test: Test C postemergence; format: in vivo, Cyperus esculentus
Procedure, shortened: as §1

[3] = test system: soybean; test: Test C preemergence; format: in vivo, Glycine max; details: for Soybean plant response rating: scale 0 to 100 (0 no effect, 100 complete control)
Procedure, shortened: as §1

[4] = test system: morningglory; test: Test A postemergence; format: in vivo, Ipomoea spp.
Procedure, shortened: (§2)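 Scoring was visual, on a scale where 100 means complete control and 0 means no effect, comparing treated with untreated plants around 10 days post-application. Compounds in surfactant-containing non-phytotoxic solvent were sprayed onto soil preemergence or onto one- to two-leaf seedlings (2–10 cm) postemergence.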

[5] = test system: ragweed; test: Test C postemergence; format: in vivo, Ambrosia elation
Procedure, shortened: as §1

[6] = test system: johnsongrass; test: Test C postemergence; format: in vivo, Sorghum halepense
Procedure, shortened: as §1

[7] = test system: barnyardgrass; test: Test C preemergence; format: in vivo, Echinochloa crus-galli; details: for Barnyardgrass plant response rating: scale 0 to 100 (0 no effect, 100 complete control)
Procedure, shortened: as §1

[8] = test system: soybean; test: Test C postemergence; format: in vivo, Glycine max
Procedure, shortened: as §1

[9] = test system: waterhemp; test: Test C preemergence; format: in vivo, Amaranthus rudis; details: for Waterhemp plant response rating: scale 0 to 100 (0 no effect, 100 complete control)
Procedure, shortened: as §1

[10] = test system: velvetleaf; test: Test C preemergence; format: in vivo, Abutilon theophrasti; details: for Velvetleaf plant response rating: scale 0 to 100 (0 no effect, 100 complete control)
Procedure, shortened: as §1

[11] = test system: oilseed rape; test: Test C postemergence; format: in vivo, Brassica napus
Procedure, shortened: as §1

[12] = test system: ragweed; test: Test C preemergence; format: in vivo, Ambrosia elation; details: for Ragweed plant response rating: scale 0 to 100 (0 no effect, 100 complete control)
Procedure, shortened: as §1

[13] = test system: corn; test: Test C postemergence; format: in vivo, Zea mays
Procedure, shortened: as §1

[14] = test system: crabgrass, large; test: Test A preemergence; format: in vivo, Digitaria sanguinalis; details: preemergence
Procedure, shortened: as §2

[15] = test system: wheat; test: Test A preemergence; format: in vivo, Triticum aestivum; details: preemergence
Procedure, shortened: as §2

[16] = test system: ryegrass, Italian; test: Test C postemergence; format: in vivo, Lolium multiflorum
Procedure, shortened: as §1

[17] = Postemergence, 31 g ai/ha, visually evaluated after 13 to 15 days
[18] = postemergence, 62 g ai/ha, scale 0 to 100
[19] = postemergence, 250 g ai/ha, scale 0 to 100 (0 no effect, 100 complete control)
[20] = postemergence, 125 g ai/ha, scale 0 to 100, 0 no effect, 100 complete control
[21] = preemergence, 31 g ai/ha, visual rating, 13 to 15 days
[22] = preemergence, 62 g ai/ha, 13 to 15 days
[23] = preemergence, 125 g ai/ha, 13 to 15 days, scale 0 to 100, 0 = no effect, 100 = complete control
[24] = 125 g ai/ha, visual injury, 0 to 100 scale, approx. 10 days
[25] = 500 g ai/ha, visual injury after approx. 10 days, 0 to 100 scale (0 no effect, 100 complete control)

CCNC(=O)c1cc(CC)n(Cc2ccnc(OC(F)F)c2)n1 [Compound 130]
Plant response rating (scale of 0 to 100 where 0 is no effect and 100 is complete control), Foxtail, Giant [1, 17]: 40 | Foxtail, Giant plant response rating [1, 18]: 15 | Plant response rating, Foxtail, Giant [1, 19]: 55 | Plant response rating, Foxtail, Giant [1, 20]: 20 | Plant response rating (scale of 0 to 100 where 0 is no effect and 100 is complete control), Nutsedge, Yellow [2, 17]: 0 | Nutsedge, Yellow plant response rating [2, 18]: 5 | Plant response rating, Nutsedge, Yellow [2, 19]: 10 | Plant response rating, Nutsedge, Yellow [2, 20]: 5 | Plant response rating (scale of 0 to 100), Soybean ([3]; Preemergence, 250 g ai/ha): 98 | Soybean plant response rating [3, 21]: 10 | Soybean plant response rating [3, 22]: 55 | Plant response rating, Soybean [3, 23]: 90 | Morningglory plant response rating ([4]; Postemergence, 500 g ai/ha, 0 to 100 scale (0 no effect, 100 complete control)): 100 | Morningglory plant response rating ([4]; postemergence, 125 g ai/ha, about 10 days, visual rating on 0 to 100 scale (0 no effect, 100 complete control)): 90 | Plant response rating (scale of 0 to 100 where 0 is no effect and 100 is complete control), Ragweed [5, 17]: 30 | Ragweed plant response rating [5, 18]: 35 | Plant response rating, Ragweed [5, 19]: 85 | Plant response rating, Ragweed [5, 20]: 45 | Plant response rating (scale of 0 to 100 where 0 is no effect and 100 is complete control), Johnsongrass [6, 17]: 0 | Johnsongrass plant response rating [6, 18]: 5 | Plant response rating, Johnsongrass [6, 19]: 10 | Plant response rating, Johnsongrass [6, 20]: 5 | Plant response rating (scale of 0 to 100), Barnyardgrass ([7]; Preemergence, 250 g ai/ha): 100 | Barnyardgrass plant response rating ([7]; preemergence, 31 g ai/ha, 13 to 15 days): 50 | Barnyardgrass plant response rating [7, 22]: 85 | Plant response rating, Barnyardgrass [7, 23]: 100 | Plant response rating (scale of 0 to 100 where 0 is no effect and 100 is complete control), Soybean [8, 17]: 70 | Soybean plant response rating [8, 18]: 80 | Plant response rating, Soybean [8, 19]: 98 | Plant response rating, Soybean [8, 20]: 65 | Plant response rating (scale of 0 to 100), Waterhemp ([9]; Preemergence, 250 g ai/ha): 100 | Waterhemp plant response rating [9, 21]: 100 | Waterhemp plant response rating [9, 22]: 100 | Plant response rating, Waterhemp [9, 23]: 100 | Plant response rating (scale of 0 to 100), Velvetleaf ([10]; Preemergence, 250 g ai/ha): 100 | Velvetleaf plant response rating [10, 21]: 55 | Velvetleaf plant response rating [10, 22]: 100 | Plant response rating, Velvetleaf [10, 23]: 90 | Plant response rating (scale of 0 to 100 where 0 is no effect and 100 is complete control), Oilseed Rape [11, 17]: 35 | Oilseed Rape plant response rating [11, 18]: 40 | Plant response rating, Oilseed Rape [11, 19]: 60 | Plant response rating, Oilseed Rape [11, 20]: 55 | Plant response rating (scale of 0 to 100), Ragweed ([12]; Preemergence, 250 g ai/ha): 100 | Ragweed plant response rating [12, 21]: 70 | Ragweed plant response rating [12, 22]: 100 | Plant response rating, Ragweed [12, 23]: 100 | Plant response rating (scale of 0 to 100 where 0 is no effect and 100 is complete control), Corn [13, 17]: 5 | Corn plant response rating [13, 18]: 5 | Plant response rating, Corn [13, 19]: 25 | Plant response rating, Corn [13, 20]: 5 | Crabgrass, Large plant response rating [14, 24]: 100 | Crabgrass, Large plant response rating [14, 25]: 100 | Wheat plant response rating [15, 24]: 10 | Wheat plant response rating [15, 25]: 90 | Plant response rating (scale of 0 to 100 where 0 is no effect and 100 is complete control), Ryegrass, Italian [16, 17]: 5 | Ryegrass, Italian plant response rating [16, 18]: 5 | Plant response rating, Ryegrass, Italian [16, 19]: 15 | Plant response rating, Ryegrass, Italian [16, 20]: 10
